Reference: patent US12391698B2, “Substituted piperidines and piperazines and methods for the treatment of CNS disorders” (SUVEN LIFE SCIENCES LIMITED, priority 2022, dated 2025)
Structures can show the parent of a compound that is named as a salt.

How the values were obtained:
[1] = molecular target: T1, recombinant human 5-HT2A receptor (Homo sapiens, UniProt P28223); assay: Determination of Kb at 5-HT2A receptor, pCRE-Luc reporter gene assay in CHO cells; format: cell-based
T1 construct: expressed in transfected cells
Method: A stable CHO cell line expressing recombinant human 5-HT2A receptor and pCRE-Luc reporter system was used for cell-based assay. The assay offers a non-radioactive based approach to determine binding of a compound to GPCRs. In this specific assay, the level of intracellular cAMP which is modulated by activation or inhibition of the receptor was measured. The recombinant cells harbor luciferase reporter gene under the control of cAMP response element.
The above cells were grown in 96 well clear bottom white plates in Hams F12 medium containing 10% fetal bovine serum (FBS). Prior to the addition of compounds or standard agonist, cells were serum starved overnight. Increasing concentrations of test compound were added along with 1 μM of serotonin in Opti-MEM medium to the cells. The incubation was continued at 37° C. in CO2 incubator for 4 hours. Medium was removed and cells were washed with phosphate buffered saline. The cells were lysed and luciferase activity was measured in a Luminometer. Luminescence units were plotted against the compound concentrations using GraphPad Prism software. EC50 values of the compounds were defined as the concentration required in reducing the luciferase activity by 50%. The Kb values were calculated by feeding the concentration of agonist used in the assay and its EC50 value in the same software.

Male Wistar rats [2] = assay: MK-801-induced amnesia in novel object recognition task (NORT); format: in vivo, rat; details: 0.3 mg/kg, p.o., MK-801 0.03 mg/kg, i.p.
Method: Male Wistar rats of 230-280 g body weight were used. Rats were weighed and randomized according to their body weights. On day 1, animals were habituated to the arenas for 45 min. On day 2, 30 min before the trial-1 animals were administered with vehicle (WFI) or test compound and 20 min before the trial-1 the animals were administered with MK-801 0.03 mg/kg, i.p. Trial-1 is familiarization task in the arena with two similar kind of silver color flasks of same dimensions for a period of 3 min. After an inter trial interval of 90 min animals were subjected to recognition task in the arena with one silver and one violet bottle for a period of 3 min. Time spent by the rats with either familiar or novel objects was noted and analyzed. MK-801-induced amnesia in novel object recognition task models cognitive deficits associated with schizophrenia.

Male Wistar rats [3] = assay: Effect on sleep/wake profile (EEG/EMG telemetry); format: in vivo, rat; details: 10 mg/kg, p.o., dosed 15 min prior to lights-off
From the text: Male Wistar rats were anesthetized with isoflurane (Baxter India Private Limited: 4% in oxygen for induction; 2% for maintenance) and were fixed into the stereotaxic frame (Stoelting, Illinois, USA) to perform surgery. An incision was made to reveal bregma from which coordinates were taken. Telemetric transmitter (Model F40-EET; DSI, St. Paul, MN, USA) was implanted into intraperitoneal cavity of the rats and leads were tunneled subcutaneously to the skull. One pair of electrodes were implanted epidurally into the frontal cortex region using stainless steel screws (CMA Microdialysis, Stockholm, Sweden) at coordinates of AP +3.2 mm, ML ±3.0 mm (Paxinos and Watson 2004) for recording of EEG and electrodes were fixed to the skull with dental acrylic cement (Dentalon® plus). The second set of lead wires were implanted into the neck nuchal muscle to record electromyogram (EMG). After a surgical recovery of minimum 3 weeks, animals were acclimatized to the handling procedures and were given a mock dosing for 3 days before the first experimental day.
One hour prior to lights-off, transmitter was switched on using a magnet and animals were transferred on to the receiver along with the home cage. […]
The amount of time spent in wake was determined for every 30 min and comparison between treatments was done using Bonferroni's post test.

Male Wistar rats [4] = assay: DOI-induced head twitch response; format: in vivo, rat; details: 3.0 mg/kg, s.c., 30 min prior to DOI
Method: On day 1 male Wistar rats (220-250 g) were habituated in a circular cylinder for a period of 15 min. On day 2, the rats were brought to the experimental room 30 min prior to the experiment. All the animals were administered with respective formulations i.e. vehicle or test compound 30 min prior to DOI or vehicle administration. Immediately following DOI or vehicle administration, the animals were kept in the circular cylinder for a period of 10 min to score the head twitches. Compounds which act as 5-HT2A antagonists attenuate DOI-induced head twitches.

[5] = system: Dopamine and norepinephrine levels in prefrontal cortex and striatum; assay: Modulation in dopamine and norepinephrine levels in prefrontal cortex and striatum (microdialysis); format: in vivo; details: male Wistar rats; for mean maximum increase in dopamine levels in prefrontal cortex / mean maximum increase in norepinephrine levels in prefrontal cortex: s.c. (so in the source), basal = 100%
Male Swiss albino mice = assay: Forced swim test; format: in vivo, mouse; details: 10 mg/kg, p.o., 30 min after treatment
Method: Male Swiss albino mice having weight range of 30-40 g were used. Mice were dosed with vehicle or test compound. Thirty min after treatment, animals were individually placed inside the plexiglass cylinder (40 cm height×17 cm width) for 6 min. The depth of water (24±1° C.) was maintained at 18 cm. The immobility of the mice during the last 4 min were recorded in the 6 min trial. Forced swim test assesses antidepressant like effects of test compounds.

Male Sprague Dawley rats = assay: Amphetamine-induced hyperlocomotion; format: in vivo, rat; details: 3 mg/kg, p.o., dosed 30 min prior to trial
Method: Male Sprague Dawley rats of 230-280 g body weight were used. Rats were weighed and randomized according to their body weights. Following day, the rats were brought to the laboratory 1 h prior to test. In the morning session, rats were habituated to open field arena for 15 min. Test compound/vehicle and amphetamine/vehicle were administered 30 min prior to the trial. After the post-dose interval, rats were placed in the open field and locomotion was recorded for a period of 15 min. Amphetamine-induced hyperlocomotion models positive symptoms of schizophrenia.

T1 sequence (P28223 whole entry): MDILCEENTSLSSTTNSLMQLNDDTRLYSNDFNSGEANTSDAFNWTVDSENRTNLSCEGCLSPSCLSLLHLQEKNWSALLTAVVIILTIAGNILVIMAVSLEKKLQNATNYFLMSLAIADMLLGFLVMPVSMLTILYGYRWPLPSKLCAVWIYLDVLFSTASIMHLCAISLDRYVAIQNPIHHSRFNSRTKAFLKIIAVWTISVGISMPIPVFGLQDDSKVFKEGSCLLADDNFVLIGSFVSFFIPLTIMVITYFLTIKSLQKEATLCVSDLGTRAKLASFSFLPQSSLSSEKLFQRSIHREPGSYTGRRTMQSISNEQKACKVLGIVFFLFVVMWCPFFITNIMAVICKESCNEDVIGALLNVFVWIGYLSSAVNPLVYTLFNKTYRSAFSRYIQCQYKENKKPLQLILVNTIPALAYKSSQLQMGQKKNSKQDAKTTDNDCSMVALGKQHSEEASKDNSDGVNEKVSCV

With `O=C1C[C@@H]2CCCN2C(=O)N1CCCCN1CCN(c2nsc3ccccc23)CC1` [Example 2, 2-[4-(4-Benzo[d]isothiazol-3-yl-piperazin-1-yl)-butyl]-tetrahydro-pyrrolo[1,2-c]pyrimidine-1,3-dione oxalate] the “agonist activity at human recombinant 5-HT2A receptor” value ([1]; pCRE-Luc reporter gene assay) was “no detectable agonist activity”, the “antagonistic activity at human recombinant 5-HT2A receptor” value ([1]; pCRE-Luc reporter gene assay) was “antagonistic activity” and the Kb ([1]; with 1 μM serotonin, luciferase readout) was 8 nM. For the same compound, the “Inference, MK-801-induced amnesia in NORT” value (Male Wistar rats [2]) was “Active”, the “change in percent time wake” value (Male Wistar rats [3]) was “no change” and the “Inference, DOI-induced head twitch response” value (Male Wistar rats [4]) was “Active”. The “mean maximum increase in dopamine levels in prefrontal cortex” value ([5]; 3 mg/kg) was 326±24%, the “mean maximum increase in norepinephrine levels in prefrontal cortex” value ([5]; 3 mg/kg) was 187±30% and the “mean maximum increase in dopamine levels in prefrontal cortex” value ([5]; 10 mg/kg) was 458±91%. The “mean maximum increase in norepinephrine levels in prefrontal cortex” value ([5]; 10 mg/kg) was 368±99%, the “change in dopamine levels in striatum” value [5] was “no change” and the “Inference, mice forced swim test” value (Male Swiss albino mice) was “Active”. The “Inference, amphetamine antagonism (hyperlocomotion)” value (Male Sprague Dawley rats) was “Active”.
